Assays:
[1] = tested on: soleus muscle; assay: Glycogen content in soleus muscle in vivo; parameters: species or system mice; conditions: mice with type 2 DM, insulin 0.5 IUkg^−1 i.p.
Method: (§1) The mice were injected with borapetoside A (10 mgkg^−1, interperitoneal) for 60 minutes or insulin (0.5 IUkg^−1, interperitoneal) for 30 minutes. After the treatment, the anesthetic mice were sacrificed by cervical dislocation to collect the soleus muscle and liver. About 40 mg of each sample was dissolved in 1 mol/L KOH at 75° C. for 30 min. The dissolved homogenate was neutralized by glacial acetic acid and then incubated overnight in acetate buffer (0.3 mol/L sodium acetate, pH 4.8) containing amyloglucosidase (Sigma, St. Louis, Mo.). The mixture was then neutralized with 1 mol/L NaOH to stop the reaction. The glycogen contents in the tissue samples were determined as μg of glucose per mg of tissue (wet weight).

[2] = tested on: liver; assay: Glycogen content in liver in vivo; parameters: species or system mice; conditions: mice with type 2 DM, insulin 0.5 IUkg^−1 i.p.
Method: as §1

[3] = tested on: IL-6-treated C2C12 cells; assay: Glycogen content assay in IL-6-induced insulin resistant C2C12 cells; format: cell-based; conditions: IL-6-treated C2C12, 1 nM insulin, 30 minutes
Method: The C2C12 skeletal muscle cells were cultured in Dulbecco's modified Eagle's medium (DMEM; Gibco/Invitrogen, Carlsbad, Calif.), and the human hepatocellular carcinoma cell line, Hl-ep3B, was cultured in Roswell Park Memorial Institute medium 1640 (RPMI 1640 medium; Gibco/Invitrogen, Carlsbad, Calif.). Cells were cultured at 37° C. in the humidified incubator supplied with 5% CO2. Culture mediums were supplemented with 4.5 mgmL^−1 glucose, penicillin 100 IUmL^−1, streptomycin 100 μgmL^−1 and 10% fetal bovine serum (Gibco/Invitrogen, Carlsbad, Calif.). Only C2C12 cells were then switched to 2% horse serum for 3 days after reaching the 70% confluence. Myotubes formation was achieved after 4 days of incubation, and the cells were used for subsequent experiments. Culture mediums were replaced by serum free DMEM or RPMI for 24 h before experiments (see e.g., procedure described in Sultan et al., 2006).
C2C12 and Hep3B cells were treated with 1 nM insulin, 100 μM metformin, and the assigned concentration of borapetoside A for 30 minutes. To develop the insulin resistance state of cells, C2C12 cells were incubated with IL-6 at 20 ngmL^−1 for 1 hour. Later, the cells were treated with 1 nM insulin, 100 μM metformin, and the assigned concentration of borapetoside A for 30 minutes. After the assigned treatment, cells were washed twice with phosphate buffered saline (PBS). Glycogen content was measured as previously described, with some modifications (see e.g., Savage et al., 2008). The protein concentrations of the cell lysates were determined by using Pierce BCA Protein Assay Kit (Thermo-Scientific, Rockford, Ill.). The glycogen content of each sample was normalized by total protein.

[4] = Plasma insulin level before and after treatment in mice; format: in vivo
Method: The 4-week-old male ICR mice were purchased from the Animal Center of the College of Medicine, National Taiwan University (Taipei, Taiwan) with delicate humane care. This animal study was conducted by following the University ethical guidelines and the ‘Guide for the Care and Use of Laboratory Animals’ published by the US National Institutes of Health (NIH publication no. 85-23, revised 1996). The animal experiments were approved by the Institutional Animal Care and Use Committee (IACUC) of the National Taiwan University (IACUC No. 20110073). Animals were housed in a room at the constant temperature, 22±1° C., with 12 hours light and dark cycles.
(§2) After three days of acclimatization, the mice had free access to a standard rodent chow (normal mice), a standard rodent chow after single 250 mgkg^−1 streptozotocin (STZ) intraperitoneal injection (TIDM mice), and a fat-rich chow diet and fructose-sweetened water (T2DM mice) for 4 weeks. The induction of Type 1 DM was assessed and confirmed when the mice had plasma glucose levels ≧350 mgdL^−1, accompanied with polyuria, hyperphagia and decreased body weight. The induction Type 2 DM in the mice was assessed by measuring fasting plasma glucose levels and confirmed when plasma glucose level was ≧150 mgdL^−1 after the 4-week induction. The animals were assigned randomly into three groups, with seven animals in each group. In group I, the mice were treated with vehicle, 2% DMSO in normal saline, as the negative control. In group II, the mice were intraperitoneally treated with borapetoside A (0.1-10 mgkg^−1). In […], the mice received intraperitoneally metformin (300 mgkg^−1; Sigma Chemical Co., St. Louis, Mo., U.S.A.) or insulin (0.5 IUkg^−1; Insulin Actrapid® HM; Novo Nordisk, Denmark). In the acute study, mice under anesthesia received a single intraperitoneal administration of borapetoside A, negative control, or positive control. In the subacute study, mice received intraperitoneal administrations of borapetoside A, vehicle, or insulin twice a day for seven days.
(§3) Blood samples were collected from the orbital vascular plexus of the mice under anesthesia. Blood samples were then centrifuged at 13000 rpm for 5 min, and the plasma samples were collected and kept on ice prior to the assay. The plasma glucose concentration was measured by Glucose Kit Reagent (Biosystems S.A., Barcelona, Spain) following the manufacturer's instructions, and the insulin levels were estimated using mouse insulin ELISA kit (Mercodia AB, Uppsala, Sweden).

[5] = Intraperitoneal glucose tolerance test; format: in vivo, mice; conditions: metformin-treated group, compared to the vehicle group, normal and type 2 DM mice
Method: as §2, §3
The mice were maintained under anesthesia throughout the procedure. Glucose (2.0 gkg^−1) was administered intraperitoneally. Blood samples were collected from the orbital vascular plexus at 0, 30, 60, 120 min. The concentrations of the plasma glucose were measured, and the values of AUC were calculated accordingly.

For “insulin: short-acting insulin, Insulin Actrapid HM (Novo Nordisk), positive control 0.5 IUkg^−1 [reference compound]”, the “glycogen synthesis in soleus muscle” value [1] was “failed to enhance”, the “glycogen synthesis in liver” value [2] was “failed to enhance” and the glycogen content [3] was “not increased”.
Compound `CN(C)C(=N)N=C(N)N` [Metformin, metformin, reference compound] has a Plasma insulin ([4]; T1DM mice, metformin 300 mgkg^−1, after-treatment) of 22.7 ± 0.3 pmol/L, a Plasma insulin ([4]; T1DM mice, metformin 300 mgkg^−1, before-treatment) of 22.4 ± 0.4 pmol/L and a Plasma insulin ([4]; T2DM mice, metformin 300 mgkg^−1, after-treatment) of 182.0 ± 27.7 pmol/L. For the same compound, the Plasma insulin ([4]; T2DM mice, metformin 300 mgkg^−1, before-treatment) was 148.1 ± 15.2 pmol/L, the Plasma insulin ([4]; normal mice, metformin 300 mgkg^−1, after-treatment) was 72 ± 3.1 pmol/L and the Plasma insulin ([4]; normal mice, metformin 300 mgkg^−1, before-treatment) was 66.6 ± 1.3 pmol/L. For the same compound, the “increase of plasma glucose level at 30 min” value [5] was “significantly suppressed”.

From patent US20150265644A1, “THERAPEUTIC METHODS AND COMPOSITIONS FOR TREATING DIABETES UTILIZING DITERPENOID COMPOUNDS” (Orient Europharma Co., Ltd., priority 2014, published 2015)
